Experiments:
[1] = system: DNA4-C (DNA, mismatch bulge abasic, abasic site (dSpacer, tetrahydrofuran residue) at X, opposite C, flanked by C; position in Figure 1B) ATGGTGCNCGCAGCG/CGCTGCGCGCACCAT; assay: UV melting at 260 nm; details: 0.1 M phosphate, 1 mM EDTA, pH 8.3 or 7.0 (unclear); 5 µM SG, 5 µM DNA
[2] = system: mismatched DNA (DNA1, X = T, Y = C) (DNA, mismatch bulge abasic) ATGGTGTTTGCAGCG/CGCTGCACACACCAT; assay: fluorescence enhancement at 586 nm; details: 0.1 M phosphate, pH 8.3 presumed; 5 µM SG; up to 5 µM DNA; weaker than DNA1-C
[3] = system: DNA2-C (DNA, mismatch bulge abasic, abasic site (dSpacer, tetrahydrofuran residue) at X, opposite C, flanked by A; position in Figure 1B) ATGGTGANAGCAGCG/CGCTGCTCTCACCAT; assay: UV melting at 260 nm; details: 0.1 M phosphate, 1 mM EDTA, pH 8.3 or 7.0 (unclear); 5 µM SG, 5 µM DNA
[4] = system: DNA1-C (DNA, mismatch bulge abasic, abasic site (dSpacer, tetrahydrofuran residue) at X, opposite C, flanked by T; position in Figure 1B) ATGGTGTNTGCAGCG/CGCTGCACACACCAT; assay: fluorescence titration (586 nm), Scatchard; details: 0.1 M phosphate, 1 mM EDTA; pH 8.3 presumed; 1 µM SG; strongest site only
[5] = system: DNA1-T (DNA, mismatch bulge abasic, abasic site (dSpacer, tetrahydrofuran residue) at X, opposite T, flanked by T; position in Figure 1B) ATGGTGTNTGCAGCG/CGCTGCATACACCAT; assay: UV melting at 260 nm; details: 0.1 M phosphate, 1 mM EDTA, pH 8.3 or 7.0 (unclear); 5 µM SG, 5 µM DNA
[6] = system: DNA3-T (DNA, mismatch bulge abasic, abasic site (dSpacer, tetrahydrofuran residue) at X, opposite T, flanked by G; position in Figure 1B) ATGGTGGNGGCAGCG/CGCTGCCTCCACCAT; assay: UV melting at 260 nm; details: 0.1 M phosphate, 1 mM EDTA, pH 8.3 or 7.0 (unclear); 5 µM SG, 5 µM DNA
[7] = system: DNA1-A (DNA, mismatch bulge abasic, abasic site (dSpacer, tetrahydrofuran residue) at X, opposite A, flanked by T; position in Figure 1B) ATGGTGTNTGCAGCG/CGCTGCAAACACCAT; assay: UV melting at 260 nm; details: 0.1 M phosphate, 1 mM EDTA, pH 8.3 or 7.0 (unclear); 5 µM SG, 5 µM DNA
[8] = system: DNA1-G (DNA, mismatch bulge abasic, abasic site (dSpacer, tetrahydrofuran residue) at X, opposite G, flanked by T; position in Figure 1B) ATGGTGTNTGCAGCG/CGCTGCAGACACCAT; assay: UV melting at 260 nm; details: 0.1 M phosphate, 1 mM EDTA, pH 8.3 or 7.0 (unclear); 5 µM SG, 5 µM DNA
[9] = system: DNA3-G (DNA, mismatch bulge abasic, abasic site (dSpacer, tetrahydrofuran residue) at X, opposite G, flanked by G; position in Figure 1B) ATGGTGGNGGCAGCG/CGCTGCCGCCACCAT; assay: UV melting at 260 nm; details: 0.1 M phosphate, 1 mM EDTA, pH 8.3 or 7.0 (unclear); 5 µM SG, 5 µM DNA
[10] = system: DNA4-G (DNA, mismatch bulge abasic, abasic site (dSpacer, tetrahydrofuran residue) at X, opposite G, flanked by C; position in Figure 1B) ATGGTGCNCGCAGCG/CGCTGCGGGCACCAT; assay: UV melting at 260 nm; details: 0.1 M phosphate, 1 mM EDTA, pH 8.3 or 7.0 (unclear); 5 µM SG, 5 µM DNA
[11] = system: DNA2-A (DNA, mismatch bulge abasic, abasic site (dSpacer, tetrahydrofuran residue) at X, opposite A, flanked by A; position in Figure 1B) ATGGTGANAGCAGCG/CGCTGCTATCACCAT; assay: UV melting at 260 nm; details: 0.1 M phosphate, 1 mM EDTA, pH 8.3 or 7.0 (unclear); 5 µM SG, 5 µM DNA

C[n+]1cc2c3c(ccc2c2ccc4cc5c(cc4c21)OCO5)OCO3
ΔT [1]: 5.2 °C | binding [2]: yes | ΔT [3]: 5.4 °C | binding constant [4]: 1.7±0.15×10^7 M^−1 | ΔT [5]: 3.8 °C | ΔT [6]: 5.7 °C | ΔT [7]: 1.9 °C | ΔT [8]: 1.9 °C | ΔT [9]: 2.4 °C | ΔT [10]: 2.4 °C | ΔT [11]: 3.0 °C

— article PMC3502418 (2012)
